Results on 13 compounds are retold here after patent US4766148A, “Biphenylylpropionic acid derivative and pharmaceutical composition containing the same” (priority 1983, dated 1988).

Where two headings read alike, the source gives them in different places.

For series [1], the system named is carrageenan-induced edema. Kind of series: Inhibitory effect on carrageenan-induced edema. In kind it is in vivo, Wistar male rats. The settings on record: Rattus norvegicus. On the procedure: Five Wistar male rats weighing about 150 g. were used as one group. A 1% dispersion of carrageenan was injected intracutaneously into the foot pad of the right hind foot in a dose of 0.1 ml./rat. The compounds to be tested were orally administered to the rats fasted for 15 hours one hour before the carrageenan injection, or intravenously administered 2 hours […] the carrageenan injection. The volume of the foot subjected to the injection was measured by a mercury plethysmography 3 hours after the carrageenan injection on the test by oral route or 2 hours after the carrageenan injection on the test by intravenous route, and the carrageenan-induced edema was estimated from the obtained measurments.
On the technique in general: In the carrageenan paw model, swelling and tenderness develop within hours.

A short description of series [2]: Gastric ulceration (gastric irritation test). Type of series: in vivo, Wistar male rats. The settings on record: rat, in vivo, po. On the procedure:
(§1) Five Wistar male rats weighing about 150 g. were used as one group. The rats were fasted for 24 hours before the test.
(§2) Six hours after orally administration of the compounds to be tested, there was observed an existence of gastric ulcer by the method of Okabe et al (Ohyoyakuri, 16, 241 to 247 (1978)). The UD50 values were calculated from the ulcer incidence of gastric ulcer by the method of Litchfield-Wilcoxon.

Series [3] in a line: in vivo. The settings on record: mouse, po.
Protocol: (§3) Eight male SLC-ddY mice 5 week old weighing 25 to 30 g. were used as one group. The compound to be tested was orally administered using a stomach tube. The animals were kept under observation for 2 weeks. The numbers of dead animals were counted and the LD50 values were calculated by the method of Litchfield Wilcoxon.
Series [4] deals with mice. Kind of series: Acute toxicity. The settings on record: 20160 min; for LD50: Table 5, male SLC-ddY mice, orally, 2 weeks observation, Litchfield Wilcoxon.
Protocol: as §3
The subject of series [5] is gastric ulcer. Kind of series: Gastric ulceration (gastric irritation test). Type of series: in vivo, Wistar male rats. The settings on record: for UD50 (50% ulcerative dose): rat, in vivo, po; for UD50, gastric ulcer: Table 3, Wistar male rats, orally, six hours after administration, Litchfield-Wilcoxon. The method, then: as §1, §2
A short description of series [6]: in vitro. The settings on record: human, plasma. The method, then:
Each reaction mixture was incubated at 37° C. for one hour
The free FP formed by esterase in the plasma was extracted with benzene. After treating the extract with N,O-bis(trimethylsilylacetamide) for trimethylsilylation, the obtained material was determined by gas-liquid chromatography.

The nature of series [7]: Hydrolysis of FP derivatives in rat plasma. In kind it is in vitro ADME. The settings on record: Table 4; rat plasma (Compound No. 10), 37° C., one hour, amount corresponding to 50 μg. of FP per 1 ml.; read-out: Hydrolyzing rate.
The mark [8] stands for this setting: iv, 2 h, read-out: ED50, carrageenan-induced edema.
[9] abbreviates: iv, read-out: ED50 (50% effective dose), carrageenan-induced edema inhibition.
Setting [10] is: po, read-out: ED50 (50% effective dose), carrageenan-induced edema inhibition.
Where [11] appears, read: po, read-out: ED50, carrageenan-induced edema.
Where [12] appears, read: Table 3, Wistar male rats, orally, six hours after administration, Litchfield-Wilcoxon, read-out: UD50, gastric ulcer.
[13] abbreviates: iv, Table 1, rats, i.v., read-out: ED50 (50% effective dose), carrageenan-induced edema inhibition.
[14] abbreviates: iv, Table 2, Wistar male rats, i.v. 2 hours after carrageenan, read-out: ED50, carrageenan-induced edema.
Setting [15] is: po, Table 1, rats, p.o., read-out: ED50 (50% effective dose), carrageenan-induced edema inhibition.
[16] abbreviates: po, Table 2, Wistar male rats, p.o. one hour before carrageenan, measured 3 hours after carrageenan, read-out: ED50, carrageenan-induced edema.

The ED50 is the dose that gives a 50% effect, or the effect in half of the subjects. One may read the LD50 as the dose expected to kill half of the subjects tested. Higher therefore signals a less toxic substance. Consider `CC(=O)OC(C)OC(=O)C(C)c1ccc(-c2ccccc2)c(F)c1` (centres unmarked) [Compound 1, 1-(Acetoxy)ethyl 2-(2-fluoro-4-biphenylyl)propionate], for which the ED50 came out at 0.05 mg/kg in series [1] (setting [8]), 0.05 mg/kg in series [1] (setting [9]), 0.5 mg/kg in series [1] (setting [10]) and 0.5 mg/kg in series [1] (setting [11]). The TD50 at 6 h in series [2] (setting [12]) stood at 2.5 mg/kg. This compound had an LD50 at 336 h in series [3] of 650 mg/kg.
On to `CCC(=O)OC(C)OC(=O)C(C)c1ccc(-c2ccccc2)c(F)c1` (centres unmarked) [Compound 2, 1-(Propionyloxy)ethyl 2-(2-fluoro-4-biphenylyl)propionate], for which the ED50 was 0.06 mg/kg in series [1] (setting [8]), 0.06 mg/kg in series [1] (setting [9]), 0.7 mg/kg in series [1] (setting [10]) and 0.7 mg/kg in series [1] (setting [11]). Further, the TD50 at 6 h in series [2] (setting [12]) came to 3 mg/kg. Further, in series [3], the median lethal dose (LD50) at 336 h worked out at 800 mg/kg.
In the case of `CC(OC(=O)C(C)C)OC(=O)C(C)c1ccc(-c2ccccc2)c(F)c1` (centres unmarked) [Compound 3, 1-(isobutyryloxy)ethyl 2-(2-fluoro-4-biphenylyl)propionate], the ED50 in series [1] (setting [8]) came to 0.1 mg/kg; in series [1] (setting [9]) it was 0.1 mg/kg; in series [1] (setting [10]), 1.5 mg/kg; in series [1] (setting [11]), 1.5 mg/kg. Moreover, the TD50 at 6 h in series [2] (setting [12]) turned out to be 5 mg/kg. In series [3], the LD50 at 336 h is 880 mg/kg.
With `CC(OC(=O)C(C)c1ccc(-c2ccccc2)c(F)c1)OC(=O)C(C)(C)C` (centres unmarked) [Compound 4, 1-(pivaloyloxy)ethyl 2-(2-fluoro-4-biphenylyl)propionate], the ED50 was found to be 0.6 mg/kg in series [1] (setting [13]), 0.6 mg/kg in series [1] (setting [14]), 2.5 mg/kg in series [1] (setting [15]) and 2.5 mg/kg in series [1] (setting [16]). In series [2], this compound came in with a TD50 at 6 h of 10 mg/kg. Moreover, in series [4] (mouse, in vivo, po), the “LD50 (50% lethal dose)” value was greater than 1000 mg/kg. The same compound yielded an LD50 at 336 h in series [3] greater than 1000 mg/kg.
For `CCCCCCCCCCCCCCCC(=O)OC(C)OC(=O)C(C)c1ccc(-c2ccccc2)c(F)c1` (centres unmarked) [Compound 5, 1-(palmitoyloxy)ethyl 2-(2-fluoro-4-biphenylyl)propionate], the ED50 in series [1] (setting [13]), in series [1] (setting [14]), in series [1] (setting [15]) and in series [1] (setting [16]) was greater than 5 mg/kg each time. In addition, in series [5] (6 h), the “UD50 (50% ulcerative dose)” value was greater than 10.0 mg/kg. For the same compound, the TD50 at 6 h in series [2] was greater than 10 mg/kg. Moreover, the “LD50 (50% lethal dose)” value in series [4] (mouse, in vivo, po) is greater than 1000 mg/kg. Besides, in series [3], the LD50 at 336 h is greater than 1000 mg/kg.
As to `CCC(OC(C)=O)OC(=O)C(C)c1ccc(-c2ccccc2)c(F)c1` (centres unmarked) [Compound 6, 1-(Acetoxy)propyl 2-(2-fluoro-4-biphenylyl)propionate], the ED50 in series [1] (setting [8]) stood at 0.1 mg/kg; in series [1] (setting [9]), 0.1 mg/kg; in series [1] (setting [10]), 1.5 mg/kg; in series [1] (setting [11]), 1.5 mg/kg. Besides, the TD50 at 6 h in series [2] (setting [12]) turned out to be 5 mg/kg. Further, in series [3], the LD50 at 336 h is 900 mg/kg.
Take `C/C=C/C(=O)OC(C)OC(=O)C(C)c1ccc(-c2ccccc2)c(F)c1` (centres unmarked) [Compound 7, 1-(crotonoyloxy)ethyl 2-(2-fluoro-4-biphenylyl)propionate]: the ED50 in series [1] (setting [8]) turned out to be 0.08 mg/kg; in series [1] (setting [9]), 0.08 mg/kg; in series [1] (setting [10]), 0.9 mg/kg; in series [1] (setting [11]), 0.9 mg/kg. In addition, in series [2] (setting [12]), the TD50 at 6 h turned out to be 4 mg/kg. Further, in series [3], the LD50 at 336 h came to 800 mg/kg.
In the case of `CC(C)=CC(=O)OC(C)OC(=O)C(C)c1ccc(-c2ccccc2)c(F)c1` (centres unmarked) [Compound 8, [1-(3,3-dimethylacryloyloxy)ethyl]2-(2-fluoro-4-biphenylyl)propionate], the 50% effective dose (ED50) in series [1] (setting [13]) was 0.3 mg/kg; in series [1] (setting [14]), 0.3 mg/kg; in series [1] (setting [15]), 2.5 mg/kg; in series [1] (setting [16]), 2.5 mg/kg. In series [2], this compound registered a TD50 at 6 h of 7 mg/kg. Further, in series [3], the LD50 at 336 h stood at 1000 mg/kg.
For the compound `CC=CC=CC(=O)OC(C)OC(=O)C(C)c1ccc(-c2ccccc2)c(F)c1` (centres unmarked) [Compound 9, [1-(2,4-Hexadienoyloxy)ethyl]2-(2-fluoro-4-biphenylyl) propionate], the ED50 in series [1] (setting [13]) amounted to 0.3 mg/kg; in series [1] (setting [14]), 0.3 mg/kg; in series [1] (setting [15]), 2 mg/kg; in series [1] (setting [16]) it was 2 mg/kg. In series [2], this compound yielded a TD50 at 6 h of 7 mg/kg. Moreover, the LD50 at 336 h in series [3] amounted to 1000 mg/kg. The compound further came in with a metabolised at 1 h in series [6] of 20.4%.
`CC(C(=O)OC1C(=O)OCC1(C)C)c1ccc(-c2ccccc2)c(F)c1` (centres unmarked) [Compound 10, 3,3-Dimethyl-2-[2-(2-fluoro-4-biphenylyl)propionyloxy]-γ-butyrolactone]: the ED50 was determined as 0.05 mg/kg in series [1] (setting [8]), 0.05 mg/kg in series [1] (setting [9]), 0.5 mg/kg in series [1] (setting [10]) and 0.5 mg/kg in series [1] (setting [11]). Moreover, the TD50 at 6 h in series [2] (setting [12]) was determined as 2.5 mg/kg. Further, the LD50 at 336 h in series [3] was 670 mg/kg. Moreover, in series [7], the metabolised at 1 h worked out at 72.3%.
On to `CC(C(=O)O)c1ccc(-c2ccccc2)c(F)c1` (centres unmarked) [FP, 2-(2-fluoro-4-biphenylyl)-propionic acid], for which, in series [5] (360 min), the “UD50, gastric ulcer” value was determined as 1.0 mg/kg. For the same compound, the “LD50 (50% lethal dose)” value in series [4] (Table 1, mice, p.o.) is 440 mg/kg. For the same compound, in series [4], the LD50 was determined as 440 mg/kg.
Turning to `COc1ccc2c(c1)c(CC(=O)OCC(=O)O)c(C)n2C(=O)c1ccc(Cl)cc1` [acemethacin], the “UD50 (50% ulcerative dose)” value in series [5] (360 min) stood at 17.5 mg/kg. Besides, the “LD50 (50% lethal dose)” value in series [4] (Table 1, mice, p.o.) was 18.0 mg/kg. In series [4], this compound returned an LD50 of 18.0 mg/kg.
`COc1ccc2c(c1)c(CC(=O)O)c(C)n2C(=O)c1ccc(Cl)cc1` [indomethacin]: the “UD50, gastric ulcer” value in series [5] (360 min) is 5.0 mg/kg. For the same compound, the “LD50 (50% lethal dose)” value in series [4] (Table 1, mice, p.o.) is 14.0 mg/kg. The LD50 in series [4] was 14.0 mg/kg.
